Molecules are shown by their SMILES. Where only a bound is given, the exact number is not on record here.

In one experiment the target is CRBN/DDB1 (Homo sapiens, UniProt Q96SW2). The experiment can be described thus: HTRF binding assay (displacement of Cy5-thalidomide probe from CRBN/DDB1). The settings on record: CRBN/DDB1 2.5 nM, Cy5-Thalidomide 100 nM, 30 min; geometric mean; read-out: HTRF_Thali_Disp_DR_geo_IC50. The essentials:
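HTRF displacement of Cy5-thalidomide probe (100 nM) from His-tagged CRBN/DDB1 (2.5 nM) with anti-His terbium cryptate, in HEPES/NaCl/TCEP/EDTA/Tween20 buffer; 10-point 1:3 series, 30 min at ambient temperature. 665/620 nm ratio fitted 4-parameter logistic for IC50; Ki via Cheng-Prusoff.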

A further experiment has as its system LS174T. The experiment can be described thus: Growth inhibition, CyQUANT Direct Cell Proliferation Assay, LS174T. The settings on record: Homo sapiens; LS174T cells, 120 to 168 hours. The format is cell-based. The protocol: (§1) SKCO1, LS180, and LS174T cell lines were purchased from ATCC. CW2 cell line was purchased from Riken. GP2D cell line was purchased from Sigma/ECACC. All cell lines were cultured in manufacturer's recommended media at 37° C., 5% CO2. Briefly, cells were suspended in 200 μL of media and seeded at 300 to 1,800 cells per well in tissue culture treated 96-well plates with black walls and clear bottom. Plates were incubated overnight and initial (TO) read was performed the following day using CyQUANT Direct Cell Proliferation Assay Kit (Thermo Fisher Scientific) according to manufacturer's protocol. All compounds were solubilized in DMSO and prepared at 3-fold serial dilution, using 9 points starting at 30 μM as highest concentration, administered to cells and incubated for 120 to 168 hours, at which point CyQUANT assay measurement was performed using Acumen Cellista instrument (Ex/Em 480/520 nm). Media-only wells were used as blank, and 0.3% DMSO was used as DMSO-treated cell control. Growth inhibition (percent response) was calculated using the following formula in Excel: “=if ([Compound treated Day N]>[Untreated Day 0, AVG], ([Compound treated Day N]− [Untreated Day 0, AVG])/([Untreated Day N]−[Untreated Day 0, AVG])*100, ([Compound Treated Day N]−[Untreated Day 0, AVG])/([Untreated Day 0, AVG])*100)”. GI50 is the response corresponding to the 50% of untreated control.
(§2) GI50 data are reported in Tables 4a, 4b, 4c, 4d, and 4e for compounds in Table 1. In Tables 4a, 4b, 4c, 4d, and 4e below, According to the code, A represents a GI50 value of ≤0.1 μM, B represents a GI50 value >0.1 μM and ≤1 μM, C represents an GI50 value >1 μM.

The subject of a further experiment is CW2. Briefly: Growth inhibition, CyQUANT Direct Cell Proliferation Assay, CW2. The format is cell-based. The settings on record: Homo sapiens, CW-2; CW2 cells, 120 to 168 hours. Here is the method: as §1, §2
For a further experiment, the system named is GP2D. Briefly: Growth inhibition, CyQUANT Direct Cell Proliferation Assay, GP2D. The format is cell-based. The settings on record: GP2D cells, 120 to 168 hours. Here is the method:
as §1, §2

Sequence of CRBN/DDB1 (Q96SW2 whole entry): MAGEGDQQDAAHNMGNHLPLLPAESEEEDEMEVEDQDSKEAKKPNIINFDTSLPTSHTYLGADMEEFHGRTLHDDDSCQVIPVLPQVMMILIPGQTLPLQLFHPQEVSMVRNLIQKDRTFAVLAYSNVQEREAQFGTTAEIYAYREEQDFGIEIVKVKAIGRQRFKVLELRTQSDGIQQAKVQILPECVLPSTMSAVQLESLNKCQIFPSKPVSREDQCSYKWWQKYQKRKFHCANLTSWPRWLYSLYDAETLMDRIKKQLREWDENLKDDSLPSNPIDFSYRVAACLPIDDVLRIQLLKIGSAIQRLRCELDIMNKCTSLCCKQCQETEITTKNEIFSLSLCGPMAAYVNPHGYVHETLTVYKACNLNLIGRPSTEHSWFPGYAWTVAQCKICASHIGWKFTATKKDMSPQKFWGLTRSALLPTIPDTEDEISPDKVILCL
Sequence of CRBN/DDB1 (Q16531 whole entry partner): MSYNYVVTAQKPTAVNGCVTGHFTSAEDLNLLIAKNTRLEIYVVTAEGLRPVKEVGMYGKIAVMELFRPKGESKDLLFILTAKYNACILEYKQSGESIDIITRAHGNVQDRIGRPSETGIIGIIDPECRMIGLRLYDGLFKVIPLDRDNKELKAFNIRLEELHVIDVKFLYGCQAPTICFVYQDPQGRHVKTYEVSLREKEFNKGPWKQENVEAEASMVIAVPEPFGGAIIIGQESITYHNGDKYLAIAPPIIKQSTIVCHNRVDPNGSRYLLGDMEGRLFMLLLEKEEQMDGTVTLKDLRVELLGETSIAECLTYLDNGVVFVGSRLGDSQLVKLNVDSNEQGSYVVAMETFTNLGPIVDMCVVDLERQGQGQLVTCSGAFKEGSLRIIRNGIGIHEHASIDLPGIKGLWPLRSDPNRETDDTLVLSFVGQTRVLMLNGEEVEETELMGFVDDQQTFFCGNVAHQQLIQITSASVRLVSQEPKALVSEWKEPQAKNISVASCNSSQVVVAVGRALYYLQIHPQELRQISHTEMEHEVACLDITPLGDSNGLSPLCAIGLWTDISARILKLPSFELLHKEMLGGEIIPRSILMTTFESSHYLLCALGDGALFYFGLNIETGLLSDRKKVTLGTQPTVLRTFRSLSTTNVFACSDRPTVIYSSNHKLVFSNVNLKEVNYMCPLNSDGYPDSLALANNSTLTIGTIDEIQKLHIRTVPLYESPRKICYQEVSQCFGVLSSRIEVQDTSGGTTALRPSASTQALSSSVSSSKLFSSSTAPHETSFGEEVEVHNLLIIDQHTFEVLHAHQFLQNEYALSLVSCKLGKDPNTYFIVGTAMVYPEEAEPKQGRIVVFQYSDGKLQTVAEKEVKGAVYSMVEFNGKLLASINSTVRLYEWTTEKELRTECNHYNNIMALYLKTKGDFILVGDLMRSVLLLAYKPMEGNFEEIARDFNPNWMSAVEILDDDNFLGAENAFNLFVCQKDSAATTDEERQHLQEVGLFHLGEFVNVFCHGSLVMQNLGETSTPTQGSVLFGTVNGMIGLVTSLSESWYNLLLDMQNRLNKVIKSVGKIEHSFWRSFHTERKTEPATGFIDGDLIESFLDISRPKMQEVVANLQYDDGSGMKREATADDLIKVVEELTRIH

Regarding `O=C1CCC(N2Cc3cc(N4CCN(c5ccccc5)C4=O)ccc3C2=O)C(=O)N1` (stereo not drawn) [Compound 101, 3-(1-oxo-5-(2-oxo-3-phenylimidazolidin-1-yl)isoindolin-2-yl)piperidine-2,6-dione], the IC50 at CRBN/DDB1 was 100 to 1000 nM. The GI50 is more than 1000 nM with LS174T, 100 to 1000 nM in the experiment on CW2 and more than 1000 nM in the experiment on GP2D.

`C[C@@H]1CN(c2ccc3c(c2)CN(C2CCC(=O)NC2=O)C3=O)C(=O)N1c1ccc(C2CC2)cc1` (stereo partly drawn) [Compound 125, 3-(5-((R)-3-(4-cyclopropylphenyl)-4-methyl-2-oxoimidazolidin-1-yl)-1-oxoisoindolin-2-yl)piperidine-2,6-dione]: at CRBN/DDB1, the IC50 lay in the range of 100 to 1000 nM. The concentration for 50% growth inhibition (GI50) in the experiment with LS174T was not above 100 nM; in the experiment on CW2, not above 100 nM; with GP2D, 100 to 1000 nM.

As to `C[C@@H]1CN(c2ccc3c(c2)CN(C2CCC(=O)NC2=O)C3=O)C(=O)N1c1ccccc1` (stereo partly drawn) [Compound 107, 3-(5-((R)-4-methyl-2-oxo-3-phenylimidazolidin-1-yl)-1-oxoisoindolin-2-yl)piperidine-2,6-dione], at CRBN/DDB1, the IC50 fell in the range of 100 to 1000 nM. Further, the GI50 is more than 1000 nM in the experiment on LS174T, not above 100 nM in the experiment with CW2 and 100 to 1000 nM in the experiment with GP2D.

The GI50 is the concentration that inhibits growth by half. Low readings indicate more potent growth inhibition, high ones less potent growth inhibition.

These data come from patent US20250115581A1, “SUBSTITUTED PIPERIDINES AS CK1A DEGRADERS” (Monte Rosa Therapeutics, Inc., priority 2022, published 2025).
